US9675647B2, “Prophylactic and/or therapeutic agent for functional gastrointestinal disorders” (MEIJI CO., LTD., priority 2007, dated 2017)

Tested on: distal colon longitudinal muscle (colon specimen)
Assay: Magnus method, effects of sodium propionate and sodium acetate (Example 5)
Set-up: species or system rat
Settings: for effect on contractile force (in words) / effect on contraction frequency (in words): Example 5, 10, 30, 100 μL of 0.1 M solution
Excerpt: Seven-week-old SD type male rats were reared and habituated for one week, then sacrificed to excise the colon. Then, about 1 cm of the longitudinal muscle of the colon was isolated from the distal colon (a portion at about 2 to 3 cm to the appendix side from the anus), and cut into two pieces in the longitudinal layer direction (hereinafter, this is also referred to as colon specimen). Each colon specimen was hung with resting tension of 1 g in a Magnus tube filled with Krebs buffer under the condition described below, and a mixed gas of 95% oxygen and 5% carbon dioxide was passed thereto. Then, the colon specimens were equilibrated for about one hour while changing the Krebs buffer every 15 minutes.
Distilled water was added to 6.92 g of NaCl, 0.35 g of KCl, 0.29 g of MgSO4.7H2O, 0.16 g of KH2PO4, 2.1 g of glucose, 0.28 g of CaCl2, and 2.1 g of NaHCO3 to obtain 1 L. • Temperature of Krebs buffer in the Magnus tube: 32° C. • Volume of Krebs buffer introduced into the Magnus tube: 10 mL. Preparation of Test Substances
These were used as test substance aqueous solutions in the assessment test described below. Meanwhile, distilled water was used as control.
The measurement of tension and observation of muscle conditions were carried out for 15 minutes. Tension measurement charts were recorded using a recorder adjusted such that a 5 cm displacement occurs per tension of 1 g on the measurement charts. The resulting measurement charts were used to observe peaks of tension associated with muscle contraction. The contraction frequency (times/minute) was calculated from the number of peaks (times) that appeared per unit time (minute), the contractile force (g) was calculated from the peak height (cm), and numerical values were used for evaluation. With the obtained results, comparisons between the groups were further assessed for significant differences by the Student's t-test.

[1] = 10 μL of 0.1 mol/L aqueous solution added to 10 mL Krebs buffer
[2] = 30 μL of 0.1 mol/L aqueous solution added to 10 mL Krebs buffer
[3] = 100 μL of 0.1 mol/L aqueous solution added to 10 mL Krebs buffer

Row | Compound | CONTRACTILE FORCE [1] | CONTRACTION FREQUENCY [1] | CONTRACTILE FORCE [2] | CONTRACTION FREQUENCY [2] | CONTRACTILE FORCE [3] | CONTRACTION FREQUENCY [3] | effect on contractile force (in words) | effect on contraction frequency (in words)
1 | CCC(=O)[O-].[Na+] [SODIUM PROPIONATE, sodium propionate] | 1.15 ± 0.72 g | 0.47 ± 0.14 TIMES/MINUTE | 1.24 ± 0.77 g | 0.73 ± 0.19 TIMES/MINUTE | 1.20 ± 0.68 g | 0.73 ± 0.38 TIMES/MINUTE | neither a contractile force-increasing effect nor a contractile force-suppressing effect | neither a contraction frequency-enhancing effect nor a contraction frequency-suppressing effect
2 | CC(=O)[O-].[Na+] [SODIUM ACETATE, sodium acetate] |  |  |  |  |  |  | neither a contractile force-increasing effect nor a contractile force-suppressing effect | neither a contraction frequency-enhancing effect nor a contraction frequency-suppressing effect
